Converted amounts (≈) assume the structure as drawn.
Columns and labels:
Aspergillus fumigatus = assay: Antifungal activity against Aspergillus fumigatus GIMCC 3.19 after 24 hrs by two-fold serial dilution method; assay type: functional; conditions: GIMCC 3.19, 24 h
Fusarium oxysporum = assay: Antifungal activity against Fusarium oxysporum ITCC 6246 after 48 hrs by microdilution method; assay type: functional; conditions: ITCC 6246, 48 h
Cryptococcus neoformans = assay: Antifungal activity against Cryptococcus neoformans ATCC 32719 after 24 hrs by two-fold serial dilution method; assay type: functional; conditions: ATCC 32719, 24 h
Aspergillus flavus = assay: Antifungal activity against Aspergillus flavus ATCC 16870 after 24 hrs by two-fold serial dilution method; assay type: functional; conditions: ATCC 16870, 24 h
Candida albicans [1] = assay: Antifungal activity against Candida albicans CMCC 76615 after 48 hrs by microdilution method; assay type: functional; conditions: CMCC 76615, 48 h
Candida albicans [2] = assay: Antifungal activity against Candida albicans CMCC 76615 after 24 hrs by two-fold serial dilution method; assay type: functional; conditions: CMCC 76615, 24 h
Bacillus spizizenii = assay: Antibacterial activity against Bacillus subtilis ATCC 6633 after 24 hrs by two-fold serial dilution method; assay type: functional; conditions: ATCC 6633, 24 h
Pseudomonas aeruginosa = assay: Antibacterial activity against Pseudomonas aeruginosa ATCC 9027 after 24 hrs by two-fold serial dilution method; assay type: functional; conditions: ATCC 9027, 24 h
Candida tropicalis = assay: Inhibition of Candida tropicalis ATCC 750 chitin synthase using UDP-GlcNAc as substrate at 300 ug/ml after 60 mins by microplate reader method
Staphylococcus aureus [3] = assay: Antibacterial activity against Staphylococcus aureus ATCC 25923 after 24 hrs by two-fold serial dilution method; assay type: functional; conditions: ATCC 25923, 24 h
Staphylococcus aureus [4] = assay: Antibacterial activity against Methicillin-resistant Staphylococcus aureus N 315 after 24 hrs by two-fold serial dilution method; assay type: functional; conditions: N 315, 24 h
[5] = Inhibition of Candida tropicalis ATCC 750 chitin synthase using UDP-GlcNAc as substrate after 60 mins by microplate reader method
Proteus vulgaris = assay: Antibacterial activity against Proteus vulgaris ATCC 8427 after 24 hrs by two-fold serial dilution method; assay type: functional; conditions: ATCC 8427, 24 h
Escherichia coli = assay: Antibacterial activity against Escherichia coli JM 109 after 24 hrs by two-fold serial dilution method; assay type: functional; conditions: JM 109, 24 h
[6] = Non-competitive inhibition of Candida tropicalis ATCC 750 chitin synthase using UDP-GlcNAc as substrate by Lineweaver-Burk plot analysis

| SMILES | MIC (Aspergillus fumigatus) | MIC (Fusarium oxysporum) | MIC (Cryptococcus neoformans) | MIC (Aspergillus flavus) | MIC (Candida albicans [1]) | MIC (Candida albicans [2]) | MIC (Bacillus spizizenii) | MIC (Pseudomonas aeruginosa) | inhibition (Candida tropicalis) | MIC (Staphylococcus aureus [3]) | MIC (Staphylococcus aureus [4]) | IC50 [5] | MIC (Proteus vulgaris) | MIC (Escherichia coli) | Ki [6] |
| --- | --- | --- | --- | --- | --- | --- | --- | --- | --- | --- | --- | --- | --- | --- | --- |
| OC(Cn1cncn1)(Cn1cncn1)c1ccc(F)cc1F [FLUCONAZOLE] | 32 µg/mL (≈ 104 µM) | 8 µg/mL (≈ 26.1 µM) | 8 µg/mL (≈ 26.1 µM) | 32 µg/mL (≈ 104 µM) | 8 µg/mL (≈ 26.1 µM) | 16 µg/mL (≈ 52.2 µM) |  |  |  |  |  |  |  |  |  |
| COC(=O)C(C)NP(=O)(OCCN(C)c1cc(=O)oc2ccccc12)Oc1ccccc1 (stereo not drawn) | 32 µg/mL (≈ 69.5 µM) |  | 8 µg/mL (≈ 17.4 µM) | 64 µg/mL (≈ 139 µM) |  | 32 µg/mL (≈ 69.5 µM) | 512 µg/mL (≈ 1110 µM) | 512 µg/mL (≈ 1110 µM) | 77% | 512 µg/mL (≈ 1110 µM) | 512 µg/mL (≈ 1110 µM) | 150 µM | 512 µg/mL (≈ 1110 µM) | 512 µg/mL (≈ 1110 µM) |  |
| COC(=O)C(Cc1ccccc1)NP(=O)(OCCN(C)c1cc(=O)oc2ccc(C)cc12)Oc1ccccc1 (stereo not drawn) | 128 µg/mL (≈ 232 µM) |  | 64 µg/mL (≈ 116 µM) | 64 µg/mL (≈ 116 µM) |  | 64 µg/mL (≈ 116 µM) | 64 µg/mL (≈ 116 µM) | 256 µg/mL (≈ 465 µM) | 43% | 64 µg/mL (≈ 116 µM) | 128 µg/mL (≈ 232 µM) |  | 16 µg/mL (≈ 29.1 µM) | 64 µg/mL (≈ 116 µM) |  |
| COC(=O)C(C)NP(=O)(OCCN(C)c1cc(=O)oc2c(C)cccc12)Oc1ccccc1 (stereo not drawn) | 32 µg/mL (≈ 67.4 µM) |  | 128 µg/mL (≈ 270 µM) | 64 µg/mL (≈ 135 µM) |  | 64 µg/mL (≈ 135 µM) | 512 µg/mL (≈ 1080 µM) | 256 µg/mL (≈ 540 µM) | 64% | 64 µg/mL (≈ 135 µM) | 128 µg/mL (≈ 270 µM) | 220 µM | 128 µg/mL (≈ 270 µM) | 128 µg/mL (≈ 270 µM) |  |
| COC(=O)C(C)NP(=O)(OCCN(C)c1cc(=O)oc2cc(C)ccc12)Oc1ccccc1 (stereo not drawn) | 128 µg/mL (≈ 270 µM) |  | 128 µg/mL (≈ 270 µM) | 64 µg/mL (≈ 135 µM) |  | 128 µg/mL (≈ 270 µM) | 256 µg/mL (≈ 540 µM) | 256 µg/mL (≈ 540 µM) | 45% | 128 µg/mL (≈ 270 µM) | 256 µg/mL (≈ 540 µM) |  | 256 µg/mL (≈ 540 µM) | 128 µg/mL (≈ 270 µM) |  |
| COC(=O)CNP(=O)(OCCN(C)c1cc(=O)oc2ccccc12)Oc1ccccc1 (stereo not drawn) | 128 µg/mL (≈ 287 µM) |  | 64 µg/mL (≈ 143 µM) | 128 µg/mL (≈ 287 µM) |  | 64 µg/mL (≈ 143 µM) | 512 µg/mL (≈ 1150 µM) | 256 µg/mL (≈ 573 µM) | 49% | 256 µg/mL (≈ 573 µM) | 256 µg/mL (≈ 573 µM) | 640 µM | 512 µg/mL (≈ 1150 µM) | 128 µg/mL (≈ 287 µM) |  |
| COC(=O)C(NP(=O)(OCCN(C)c1cc(=O)oc2ccccc12)Oc1ccccc1)C(C)C (stereo not drawn) | 64 µg/mL (≈ 131 µM) |  | 64 µg/mL (≈ 131 µM) | 16 µg/mL (≈ 32.8 µM) |  | 32 µg/mL (≈ 65.5 µM) | 128 µg/mL (≈ 262 µM) | 512 µg/mL (≈ 1050 µM) | 54% | 256 µg/mL (≈ 524 µM) | 256 µg/mL (≈ 524 µM) | 380 µM | 512 µg/mL (≈ 1050 µM) | 512 µg/mL (≈ 1050 µM) |  |
| COC(=O)C(NP(=O)(OCCN(C)c1cc(=O)oc2ccc(C)cc12)Oc1ccccc1)C(C)C (stereo not drawn) | 128 µg/mL (≈ 255 µM) |  | 32 µg/mL (≈ 63.7 µM) | 128 µg/mL (≈ 255 µM) |  | 64 µg/mL (≈ 127 µM) | 16 µg/mL (≈ 31.8 µM) | 16 µg/mL (≈ 31.8 µM) | 41% | 16 µg/mL (≈ 31.8 µM) | 32 µg/mL (≈ 63.7 µM) |  | 32 µg/mL (≈ 63.7 µM) | 16 µg/mL (≈ 31.8 µM) |  |
| COC(=O)C(Cc1ccccc1)NP(=O)(OCCN(C)c1cc(=O)oc2ccccc12)Oc1ccccc1 (stereo not drawn) | 128 µg/mL (≈ 239 µM) |  | 64 µg/mL (≈ 119 µM) | 8 µg/mL (≈ 14.9 µM) |  | 64 µg/mL (≈ 119 µM) | 128 µg/mL (≈ 239 µM) | 64 µg/mL (≈ 119 µM) | 59% | 64 µg/mL (≈ 119 µM) | 128 µg/mL (≈ 239 µM) | 250 µM | 16 µg/mL (≈ 29.8 µM) | 64 µg/mL (≈ 119 µM) |  |
| COC(=O)C(C)NP(=O)(OCCN(C)c1cc(=O)oc2ccc(C(C)(C)C)cc12)Oc1ccccc1 (stereo not drawn) | 64 µg/mL (≈ 124 µM) |  | 64 µg/mL (≈ 124 µM) | 16 µg/mL (≈ 31 µM) |  | 64 µg/mL (≈ 124 µM) | 16 µg/mL (≈ 31 µM) | 16 µg/mL (≈ 31 µM) | 62% | 64 µg/mL (≈ 124 µM) | 1 µg/mL (≈ 1.94 µM) | 170 µM | 16 µg/mL (≈ 31 µM) | 16 µg/mL (≈ 31 µM) |  |
| COC(=O)C(C)NP(=O)(OCCN(C)c1cc(=O)oc2ccc(C)cc12)Oc1ccccc1 (stereo not drawn) | 64 µg/mL (≈ 135 µM) |  | 32 µg/mL (≈ 67.4 µM) | 128 µg/mL (≈ 270 µM) |  | 64 µg/mL (≈ 135 µM) | 256 µg/mL (≈ 540 µM) | 512 µg/mL (≈ 1080 µM) | 61% | 256 µg/mL (≈ 540 µM) | 256 µg/mL (≈ 540 µM) | 260 µM | 512 µg/mL (≈ 1080 µM) | 16 µg/mL (≈ 33.7 µM) |  |
| COC(=O)C(NP(=O)(OCCN(C)c1cc(=O)oc2ccc(C(C)(C)C)cc12)Oc1ccccc1)C(C)C (stereo not drawn) | 64 µg/mL (≈ 118 µM) |  | 32 µg/mL (≈ 58.8 µM) | 2 µg/mL (≈ 3.67 µM) |  | 64 µg/mL (≈ 118 µM) | 16 µg/mL (≈ 29.4 µM) | 32 µg/mL (≈ 58.8 µM) | 62% | 32 µg/mL (≈ 58.8 µM) | 16 µg/mL (≈ 29.4 µM) | 180 µM | 32 µg/mL (≈ 58.8 µM) | 16 µg/mL (≈ 29.4 µM) |  |
| COC(=O)C(Cc1ccccc1)NP(=O)(OCCN(C)c1cc(=O)oc2ccc(C(C)(C)C)cc12)Oc1ccccc1 (stereo not drawn) | 32 µg/mL (≈ 54 µM) |  | 8 µg/mL (≈ 13.5 µM) | 2 µg/mL (≈ 3.37 µM) |  | 8 µg/mL (≈ 13.5 µM) | 32 µg/mL (≈ 54 µM) | 16 µg/mL (≈ 27 µM) | 90% | 8 µg/mL (≈ 13.5 µM) | 128 µg/mL (≈ 216 µM) | 80 µM | 16 µg/mL (≈ 27 µM) | 16 µg/mL (≈ 27 µM) | 96 µM |

Reference: ChEMBL document CHEMBL3758177, “Synthesis and biological evaluation of novel phosphoramidate derivatives of coumarin as chitin synthase inhibitors and antifungal agents” (Eur J Med Chem, 2016)
